Data: US8716302B2, “Compounds for inducing cellular apoptosis” (Queen Mary & Westfield College, priority 2009, dated 2014)
Several values for one entry are separate records, joined by “and”; a condition that tells them apart may be missing. Equal entries are not always repeated. Where two headings read alike, the source gives them in different places.

Columns and labels:
[1] = test system: DoHH2 (lymphoma) cell line; assay: DiOC6(3) flow evaluation of cell viability and apoptosis, DoHH2 (lymphoma) cell line; type: cell-based, human; details: for Percentage Cell Viability: DoHH2 cells, 50 μM; for cytotoxicity at 50 µM / viability at 50 µM: Homo sapiens, DOHH-2, DoHH2 cells
Protocol: DiOC6(3) flow evaluation of cell viability and levels of apoptosis was carried out at 10 and 50 μm concentrations. For each entry in FIG. 1, % apoptosis is on the left and % viable is on the right.
Measurement of Mitochondrial Membrane Potential depolarisation and mitochondrial permeability transition (MPT). Cells were incubated for 20 minutes at 37° C. in the dark with the cationic lipophillic (amphipathic) probe 3,3′-dihexyloxacarbocyanine iodide, DiOC6(3) (80 nM), then counter stained for 10 minutes with propidium iodide (20 μg/ml). DiOC6(3) is sequestered within the mitochondrial matrix due to the inner membrane potential (Δψm), according to the Nernst equation, dissipation leading to a reduction in mitochondrial retention and decreased cellular DiOC6(3) fluorescence. Collapse of Δψm was prevented by incubating cells for 30 minutes with 50 μM bongkrekic acid. Events with increased propidium iodide fluorescence were subtracted, by gating, from the DiOC6(3) histograms to eliminate dead cells, with loss of plasma membrane integrity. Dose-response curves used the calculated proportion of DiOC6(3)low, cells as the dependent variable on the ordinate. To measure MPT directly, cells were incubated with 1 μM calcein AM for 30 minutes, followed by 1 mM […] cobalt. Cobalt quenches calcein fluorescence, but cannot traverse an intact inner mitochondrial membrane to enter the mitochondrial matrix, to which calcein equilibrates. Opening of the PTPC allows cobalt to enter, reducing calcein fluorescence.
The Lymphoma cell line (DoHH2) was treated with PK11195 and various compounds of the invention at doses of 10 and 50 μmol concentrations. Levels of cell viability and apoptosis were measured by DiOC6 flow evaluation. DiOC6 is a fluorescent dye which acts as a surrogate marker of mitochondrial depolarisation. Uptake of DiOC6 and consequent fluorescence is a measure of opening of the permeability transition pore complex (PTPC).
The following tables set out % viability and % apoptosis results seen for treatment of DoHH2 cells with certain compounds of the invention at a dosage of 50 μM, in comparison with untreated cells. The assay procedure used was as described above in respect of “Treatment of DoHH 2 (Lymphoma) Cell Line”.

DoHH2 cells = assay: Superoxide purging with MnTBAP, apoptosis in DoHH2 cells; type: cell-based, human; details: with and without ROS scavenger MnTBAP
Protocol: For each entry in FIG. 2, DAPI viable is on the left and DAPI non viable is on the right.
O^2-• was detected by incubating cells for 15 minutes in 5 μM dihydroethidium, which is oxidized to ethidium. To test the effect of O^2-• […] on O^2-• generation, cells were treated with 100 μM MnTBAP for 45 minutes. Hydrogen peroxide was detected by loading cells for 30 minutes with 5 μM CM-H2DCFDA, and its formation inhibited by preincubation with 500 U/ml catalase for 30 minutes. Dose-response curves for CM-H2DCFDA used the calculated proportion of CM-H2DCFDAhigh cells as the dependent variable.
DoHH2 cells were exposed to AAW-001, AAW-0014 and PK11195 in the presence and absence of the mitochondrial reactive oxygen species (ROS) scavenger MnTBAP.

[2] = test system: human lymphoma DoHH2 cell line xenograft; assay: DoHH2 xenograft NOD/SCID mice; type: in vivo; details: for mice alive at 10 weeks: cohorts of ten mice
Protocol: NOD/SCID mice xenografted with the human lymphoma DoHH2 cell line were treated two weeks post inoculation with the human B cell lymphoma cell line DoHH2. There were three cohorts of ten mice. For two cohorts, treatment consisted of 50 microgram intraperitoneal (IP) doses twice weekly for three weeks of PK11195 or AAW-0014, respectively. The third cohort was treated with 200 microlitres of saline twice weekly over a 3 week period. The mice were then observed for up to six weeks. All of the saline treated mice were dead due to disease at 10 weeks. […] All of the AAW-0014 treated mice were alive at 10 weeks showing less than 20% splenic involvement, including 2 mice with no detectable disease.

[3] = average of repeats, read-out: Percentage Cell Apoptosis, Averages
[4] = average of repeats, read-out: Percentage Cell Viability, Averages
[5] = 50 microgram IP twice weekly for three weeks
[6] = at 10 weeks, 50 microgram IP twice weekly for three weeks
[7] = individual repeats, read-out: Percentage Cell Apoptosis
[8] = individual repeats, read-out: Percentage Cell Viability

## CCCCC(=O)Nc1nc2c(c(-c3ccccc3Cl)n1)CN(Cc1ccccc1)CC2 [CO-AAW00014, pentanoic acid [6-benzyl-4-(2-chloro-phenyl)-5,6,7,8-[4,3-d]pyrimidin-2-yl]-amide]
[1]; individual repeats, listed as 14, 50 µM
  Percentage Cell Viability: 68.8% and 42.3% and 39.4% and 65.8% and 51.8% and 54.3% and 49.6%
[1]; [3]
  cytotoxicity at 50 µM: 65.5%
[1]; [4]
  viability at 50 µM: 53.1%
DoHH2 cells
  ability to induce apoptosis in the presence of MnTBAP: inhibited by MnTBAP
[2]; [5]
  drug related toxicities: No major drug related toxicities were observed
  mice alive at 10 weeks: All
[2]; [6]
  splenic involvement: less than 20%
[2]; at 10 weeks, of ten mice
  mice with no detectable disease: 2

## CCC(C)C(=O)Nc1cc2ccccc2c(-c2ccccc2Cl)n1 (centres unmarked) [CO-AAW0008]
[1]; individual repeats, listed as 8, 50 µM
  Percentage Cell Viability: 54.1% and 81.7%
[1]; [3]
  cytotoxicity at 50 µM: 39.2%
[1]; [4]
  viability at 50 µM: 67.9%
[1]; [7]
  cytotoxicity at 50 µM: 48.8%

## CC(C)C(=O)Nc1cc2c(c(-c3ccccc3Cl)c1)CCN(C(=O)c1ccccc1)C2 [CO-AAW00025, N-[2-Benzoyl-5-(2-chloro-phenyl)-1,2,3,4-tetrahydroisoquinolin-7-yl]2-methylpropanamide]
[1]; individual repeats, listed as 25, 50 µM
  Percentage Cell Viability: 56.3% and 78.8%
[1]; [3]
  cytotoxicity at 50 µM: 15.4%
[1]; [4]
  viability at 50 µM: 67.6%
[1]; [7]
  cytotoxicity at 50 µM: 19.7%

## CCCCNC(=O)c1cc2ccccc2c(-c2ccccc2Cl)n1 [CO-AAW00022]
[1]; individual repeats, listed as 22, 50 µM
  Percentage Cell Viability: 19.4%
[1]; [3]
  cytotoxicity at 50 µM: 65.4%
[1]; [4]
  viability at 50 µM: 28.4%
[1]; [7]
  cytotoxicity at 50 µM: 62.9%
[1]; [8]
  viability at 50 µM: 37.4%

## CCC(C)N(C)C(=O)c1cc2ccccc2c(-c2ccccc2Cl)n1 (centres unmarked) [PK11195, 1-(2-chlorophenyl)-N-methyl-N-(1-methylpropyl)-3-isoquinolinecarboxamide, reference compound]
[2]; [6]
  disease on splenic assessment on culling: moderate levels of disease
[2]; [5]
  mice alive at 10 weeks: Five of the ten

## CC(C)NC(=O)c1cc2ccccc2c(-c2c(Cl)cccc2Cl)n1 [CO-AAW00018]
[1]; individual repeats, listed as 18, 50 µM
  Percentage Cell Viability: 79.2%
[1]; [3]
  cytotoxicity at 50 µM: 24.1%
[1]; [4]
  viability at 50 µM: 82%
[1]; [7]
  cytotoxicity at 50 µM: 25.6%
[1]; [8]
  viability at 50 µM: 84.8%

## CCCC(=O)N1CCc2c(cc([N+](=O)[O-])cc2-c2ccccc2Cl)C1 [CO-AAW00017, 1-[5-(2-chlorophenyl)-7-nitro-1,2,3,4-tetrahydroisoquinolin-2-yl]butan-1-one]
[1]; individual repeats, listed as 17, 50 µM
  Percentage Cell Viability: 68.4%
[1]; [3]
  cytotoxicity at 50 µM: 49.2%
[1]; [4]
  viability at 50 µM: 71.3%
[1]; [7]
  cytotoxicity at 50 µM: 43%
[1]; [8]
  viability at 50 µM: 74.2%

## CNC(=O)c1cc2ccccc2c(-c2ccccc2Cl)n1 [CO-AAW00020]
[1]; individual repeats, listed as 20, 50 µM
  Percentage Cell Viability: 78.7%
[1]; [3]
  cytotoxicity at 50 µM: 17.3%
[1]; [4]
  viability at 50 µM: 75.7%
[1]; [7]
  cytotoxicity at 50 µM: 17.1%
[1]; [8]
  viability at 50 µM: 72.7%

## CCCCC(=O)Nc1cc2c(c(-c3ccccc3Cl)c1)CCN(C(=O)C(F)(F)F)C2 [CO-AAW00030, pentanoic acid [5-(2-chlorophenyl)-2-(2,2,2-trifluoro-acetyl)-1,2,3,4-tetrahydro-isoquinolin-7-yl]amide]
[1]; [3]
  cytotoxicity at 50 µM: 61.2%
[1]; [4]
  viability at 50 µM: 64.3%
[1]; [7]
  cytotoxicity at 50 µM: 61.2%
[1]; [8]
  viability at 50 µM: 64.3%

## CC(C)NC(=O)c1cc2ccccc2c(-c2ccccc2Cl)n1 [CO-AAW0009]
[1]; individual repeats, listed as 9, 50 µM
  Percentage Cell Viability: 48.8% and 90.5%
[1]; [3]
  cytotoxicity at 50 µM: 32.4%
[1]; [4]
  viability at 50 µM: 69.9%

## O=C(Nc1nc2c(c(-c3ccccc3Cl)n1)CN(Cc1ccccc1)CC2)c1cccc(Cl)c1Cl [CO-AAW00016, N-[6-benzyl-4-(2-chlorophenyl)-5H,6H,7H,8H-pyrido[4,3-d]pyrimidin-2-yl]-2,3-dichlorobenzamide]
[1]; individual repeats, listed as 16, 50 µM
  Percentage Cell Viability: 76.5%
[1]; [3]
  cytotoxicity at 50 µM: 33.5%
[1]; [4]
  viability at 50 µM: 77.5%
[1]; [7]
  cytotoxicity at 50 µM: 33.4%
[1]; [8]
  viability at 50 µM: 78.5%

## CC(C)C(=O)Nc1cc2c(c(-c3ccccc3Cl)c1)CCN(C(=O)C(F)(F)F)C2 [CO-AAW0001, N-[5-(2-chloro-phenyl)-2-(2,2,2-trifluoro-acetyl)-1,2,3,4-tetrahydro-isoquinolin-7-yl]-isobutyramide]
[1]; individual repeats, listed as 1, 50 µM
  Percentage Cell Viability: 73.8% and 67.7% and 47.9% and 62.5% and 48.0% and 52.8% and 52.9% and 48.5% and 68.4% and 65.4%
[1]; [3]
  cytotoxicity at 50 µM: 52.8%
[1]; [4]
  viability at 50 µM: 59.7%

## CC(C)C(=O)Nc1cc2ccccc2c(-c2ccccc2Cl)n1 [CO-AAW0007]
[1]; individual repeats, listed as 7, 50 µM
  Percentage Cell Viability: 63.9% and 88.2%
[1]; [3]
  cytotoxicity at 50 µM: 26.1%
[1]; [4]
  viability at 50 µM: 76.1%
